Measured values published in PMC10088252.

Method: Dose adjustment was allowed according to the severity of toxicity [Supplementary Table 1].
The primary endpoints were safety, ORR and DCR assessed by investigators. […] AEs referred to treatment-emergent adverse events (TEAEs) and TRAEs were assessed by investigators. Serious adverse events (SAEs) referred to AEs meeting at least one of the following criteria: event leading to death; life-threatening event; event requiring hospitalization or extension of hospital stay; event leading to persistent or evident disability or dysfunction; event leading to congenital malformation or birth defect or event which might lead to injury or that need medical treatment to avoid the above mentioned important medical events.

With `O=C(Nc1ccc(Oc2ccnc3c2CCN3)c(F)c1)c1c[nH]cc(-c2ccc(F)cc2)c1=O` the “TRAE Insomnia, any grade” value (300 mg QD (n=12)) was 1 (8.3) n (%), the “TRAE Insomnia, grade 3-4” value (300 mg QD (n=12)) was 0 n (%) and the “TRAE Leukopenia, any grade” value (300 mg QD (n=12)) was 0 n (%). The “TRAE Leukopenia, grade 3-4” value (300 mg QD (n=12)) was 0 n (%), the “TRAE Nausea, any grade” value (300 mg QD (n=12)) was 3 (25.0) n (%) and the “TRAE Nausea, grade 3-4” value (300 mg QD (n=12)) was 0 n (%). The “TRAE Neuritis, any grade” value (300 mg QD (n=12)) was 0 n (%), the “TRAE Neuritis, grade 3-4” value (300 mg QD (n=12)) was 0 n (%) and the “TRAE Occult blood, any grade” value (300 mg QD (n=12)) was 0 n (%). The “TRAE Occult blood, grade 3-4” value (300 mg QD (n=12)) was 0 n (%), the “TRAE Oedema peripheral, any grade” value (300 mg QD (n=12)) was 0 n (%) and the “TRAE Oedema peripheral, grade 3-4” value (300 mg QD (n=12)) was 0 n (%). For the same compound, the “TRAE Onycholysis, any grade” value (300 mg QD (n=12)) was 0 n (%), the “TRAE Onycholysis, grade 3-4” value (300 mg QD (n=12)) was 0 n (%) and the “TRAE Oropharyngeal pain, any grade” value (300 mg QD (n=12)) was 0 n (%). The “TRAE Oropharyngeal pain, grade 3-4” value (300 mg QD (n=12)) was 0 n (%), the “TRAE PPE, any grade” value (300 mg QD (n=12)) was 1 (8.3) n (%) and the “TRAE PPE, grade 3-4” value (300 mg QD (n=12)) was 0 n (%). For the same compound, the “TRAE Paraesthesia, any grade” value (300 mg QD (n=12)) was 0 n (%), the “TRAE Paraesthesia, grade 3-4” value (300 mg QD (n=12)) was 0 n (%) and the “TRAE Proteinuria, any grade” value (300 mg QD (n=12)) was 0 n (%). For the same compound, the “TRAE Proteinuria, grade 3-4” value (300 mg QD (n=12)) was 0 n (%), the “TRAE Pruritus, any grade” value (300 mg QD (n=12)) was 0 n (%) and the “TRAE Pruritus, grade 3-4” value (300 mg QD (n=12)) was 0 n (%). For the same compound, the “TRAE Rash maculo-papular, any grade” value (300 mg QD (n=12)) was 1 (8.3) n (%), the “TRAE Rash maculo-papular, grade 3-4” value (300 mg QD (n=12)) was 0 n (%) and the “TRAE Sinus tachycardia, any grade” value (300 mg QD (n=12)) was 0 n (%). The “TRAE Sinus tachycardia, grade 3-4” value (300 mg QD (n=12)) was 0 n (%), the “TRAE Skin fissures, any grade” value (300 mg QD (n=12)) was 0 n (%) and the “TRAE Skin fissures, grade 3-4” value (300 mg QD (n=12)) was 0 n (%). For the same compound, the “TRAE Supraventricular extrasystoles, any grade” value (300 mg QD (n=12)) was 0 n (%), the “TRAE Supraventricular extrasystoles, grade 3-4” value (300 mg QD (n=12)) was 0 n (%) and the “TRAE Thrombocytopenia, any grade” value (300 mg QD (n=12)) was 0 n (%). The “TRAE Thrombocytopenia, grade 3-4” value (300 mg QD (n=12)) was 0 n (%), the “TRAE Upper respiratory tract infection, any grade” value (300 mg QD (n=12)) was 1 (8.3) n (%) and the “TRAE Upper respiratory tract infection, grade 3-4” value (300 mg QD (n=12)) was 0 n (%). For the same compound, the “TRAE Urinary retention, any grade” value (300 mg QD (n=12)) was 0 n (%), the “TRAE Urinary retention, grade 3-4” value (300 mg QD (n=12)) was 0 n (%) and the “TRAE Urinary tract infection, any grade” value (300 mg QD (n=12)) was 0 n (%). The “TRAE Urinary tract infection, grade 3-4” value (300 mg QD (n=12)) was 0 n (%), the “TRAE Ventricular arrhythmia, any grade” value (300 mg QD (n=12)) was 1 (8.3) n (%) and the “TRAE Ventricular arrhythmia, grade 3-4” value (300 mg QD (n=12)) was 0 n (%). The “TRAE Ventricular extrasystoles, any grade” value (300 mg QD (n=12)) was 1 (8.3) n (%), the “TRAE Ventricular extrasystoles, grade 3-4” value (300 mg QD (n=12)) was 0 n (%) and the “TRAE Vomiting, any grade” value (300 mg QD (n=12)) was 0 n (%). For the same compound, the “TRAE Vomiting, grade 3-4” value (300 mg QD (n=12)) was 0 n (%), the “TRAE Weight loss, any grade” value (300 mg QD (n=12)) was 0 n (%) and the “TRAE Weight loss, grade 3-4” value (300 mg QD (n=12)) was 0 n (%). For the same compound, the “TRAE Accessory nerve disorder, any grade” value (400 mg BID (n=4)) was 0 n (%), the “TRAE Accessory nerve disorder, grade 3-4” value (400 mg BID (n=4)) was 0 n (%) and the “TRAE Activated partial thromboplastin time prolonged, any grade” value (400 mg BID (n=4)) was 0 n (%). For the same compound, the “TRAE Activated partial thromboplastin time prolonged, grade 3-4” value (400 mg BID (n=4)) was 0 n (%), the “TRAE Anaemia, any grade” value (400 mg BID (n=4)) was 0 n (%) and the “TRAE Anaemia, grade 3-4” value (400 mg BID (n=4)) was 0 n (%). The “TRAE Anaesthesia oral, any grade” value (400 mg BID (n=4)) was 0 n (%), the “TRAE Anaesthesia oral, grade 3-4” value (400 mg BID (n=4)) was 0 n (%) and the “TRAE Arrhythmia, any grade” value (400 mg BID (n=4)) was 0 n (%). For the same compound, the “TRAE Arrhythmia, grade 3-4” value (400 mg BID (n=4)) was 0 n (%), the “TRAE Arthralgia, any grade” value (400 mg BID (n=4)) was 0 n (%) and the “TRAE Arthralgia, grade 3-4” value (400 mg BID (n=4)) was 0 n (%). For the same compound, the “TRAE Asthenia, any grade” value (400 mg BID (n=4)) was 0 n (%), the “TRAE Asthenia, grade 3-4” value (400 mg BID (n=4)) was 0 n (%) and the “TRAE Blister, any grade” value (400 mg BID (n=4)) was 0 n (%). For the same compound, the “TRAE Blister, grade 3-4” value (400 mg BID (n=4)) was 0 n (%), the “TRAE Chest discomfort, any grade” value (400 mg BID (n=4)) was 0 n (%) and the “TRAE Chest discomfort, grade 3-4” value (400 mg BID (n=4)) was 0 n (%). The “TRAE Chronic kidney disease, any grade” value (400 mg BID (n=4)) was 0 n (%), the “TRAE Chronic kidney disease, grade 3-4” value (400 mg BID (n=4)) was 0 n (%) and the “TRAE Constipation, any grade” value (400 mg BID (n=4)) was 0 n (%). The “TRAE Constipation, grade 3-4” value (400 mg BID (n=4)) was 0 n (%), the “TRAE Cough, any grade” value (400 mg BID (n=4)) was 0 n (%) and the “TRAE Cough, grade 3-4” value (400 mg BID (n=4)) was 0 n (%). For the same compound, the “TRAE Decreased Ccr, any grade” value (400 mg BID (n=4)) was 0 n (%), the “TRAE Decreased Ccr, grade 3-4” value (400 mg BID (n=4)) was 0 n (%) and the “TRAE Decreased appetite, any grade” value (400 mg BID (n=4)) was 0 n (%). For the same compound, the “TRAE Decreased appetite, grade 3-4” value (400 mg BID (n=4)) was 0 n (%), the “TRAE Diarrhoea, any grade” value (400 mg BID (n=4)) was 0 n (%) and the “TRAE Diarrhoea, grade 3-4” value (400 mg BID (n=4)) was 0 n (%). For the same compound, the “TRAE Dizziness, any grade” value (400 mg BID (n=4)) was 0 n (%), the “TRAE Dizziness, grade 3-4” value (400 mg BID (n=4)) was 0 n (%) and the “TRAE Dry mouth, any grade” value (400 mg BID (n=4)) was 0 n (%). The “TRAE Dry mouth, grade 3-4” value (400 mg BID (n=4)) was 0 n (%), the “TRAE Dysgeusia, any grade” value (400 mg BID (n=4)) was 0 n (%) and the “TRAE Dysgeusia, grade 3-4” value (400 mg BID (n=4)) was 0 n (%).
